Values joined by “and” are separate entries in the source; they are usually repeats but may differ in a detail not shown here. Equal values may be shown once.
Biological target: T1, Igf2bp1 binding to Kras 6 RNA (Homo sapiens, UniProt Q9NZI8)
T1 construct: Recombinant full-length Igf2bp1 protein; made in house; host or cells: E. coli BL21(DE3)
Experiment: Fluorescence polarization (FP) assay of Igf2bp1 binding to fluorescent Kras 6 RNA
Conditions: FP dose response; read-out: IC50 for inhibition of Igf2bp1 binding to Kras 6 RNA
Experimental: For the small molecule screen, compounds were obtained from the collection maintained at the Grand Israel National Center for Personalized Medicine, consisting of molecules purchased from commercial vendors. Labelled RNA (10 nM) was incubated with recombinant Igf2bp1 protein (400 nM) in FAM-RNA buffer (10 mM Tris pH 8.0, 75 mM KCl, 0.5 mM EDTA, 1 mM DTT, 0.0188 U/μL RNAsin, 0.0005 μg/mL heparin, 0.0001 μg/μL tRNA, 0.01% Triton X-100, 3 mM MgCl2, 0.05% IGEPAL) at room temperature for 15 min. […] of this reaction mix was aliquoted with GNF WDII (USA) into wells of 1536 well plates, with a final concentration of […] compound or DMSO. The plates were spun down and read in a BMG Pherastar FS (Germany) plate reader plate reader, in FP mode with a 485/520/520 polarization filter, calibrated to 35 mP for free fluorescein with similar total intensity as experimental samples. […]
To determine the quality of the inventors screening assay, the Z′ factor for each plate was calculated with a Z′ factor greater than 0.5 indicating a robust assay suitable for high throughput screening. Compounds that altered the overall fluorescence intensity compared to controls were considered auto florescence and excluded from further analysis. […] Any small molecule that causes a change of more than three standard deviations from the mean is determined appropriate for further investigation.

T1 sequence (Q9NZI8 whole entry): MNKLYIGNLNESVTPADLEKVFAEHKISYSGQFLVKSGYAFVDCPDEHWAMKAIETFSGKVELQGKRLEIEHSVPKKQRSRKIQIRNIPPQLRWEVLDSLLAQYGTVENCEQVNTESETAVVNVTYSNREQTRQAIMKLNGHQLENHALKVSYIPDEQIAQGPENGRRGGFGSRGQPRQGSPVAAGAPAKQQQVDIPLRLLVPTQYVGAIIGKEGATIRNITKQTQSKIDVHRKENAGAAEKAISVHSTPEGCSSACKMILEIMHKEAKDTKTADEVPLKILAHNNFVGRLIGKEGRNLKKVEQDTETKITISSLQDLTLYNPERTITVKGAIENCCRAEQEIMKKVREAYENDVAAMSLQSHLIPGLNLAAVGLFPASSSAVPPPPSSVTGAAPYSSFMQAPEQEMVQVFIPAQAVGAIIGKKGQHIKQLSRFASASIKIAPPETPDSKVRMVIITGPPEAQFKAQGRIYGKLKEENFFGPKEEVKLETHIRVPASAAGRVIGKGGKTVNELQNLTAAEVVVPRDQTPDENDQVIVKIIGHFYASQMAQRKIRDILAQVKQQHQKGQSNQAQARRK

## O=C(c1ccc(Cn2cnnn2)cc1)N1CCCC(Nc2ccc3c(c2)OCO3)C1 (stereo not shown) [Compound 7773]
  IC50: ~30 µM and 15 to 36 µM

From US20240025886A1, “INHIBITORS OF IGF2BP1-RNA BINDING” (YISSUM RESEARCH DEVELOPMENT COMPANY OF THE HEBREW …, priority 2020, published 2024)
